Test results: PMC10954593, “Gastrodinol derivatives and prenylated flavones from the flower branch of Gastrodia elata” (Natural Products and Bioprospecting, 2024)
Converted amounts (≈) assume the structure as drawn. Where two headings read alike, the source gives them in different places.

Legend:
MRSA = assay: anti-MRSA activity (96-well culture plate, OD at 625 nm after 24 h); format: cell-based, methicillin-resistant Staphylococcus aureus; settings: for MIC50 / MIC50 (50% minimum inhibitory concentration), anti-MRSA: 24 h; for MIC50: read-out: MIC50 (50% minimum inhibitory concentration), anti-MRSA; for inhibition at 100 µM: read-out: Inhibition rate (%) of MRSA; for anti-MRSA activity (in words): abstract statement
Procedure: Prepare samples with DMSO as a solvent into a solution with an initial concentration of 20 mM; Take a 96-well culture plate, dilute the sample to be measured, and add bacterial solution to each well, and the final concentration is 5 × 10^5 CFU/mL; Incubate at 37 °C for 24 h, and the microplate reader determines the OD value at 625 nm. The experiment also set up a media blank control, a bacterial control and a vancomycin-positive drug control.
MIC50 (50% minimum inhibitory concentration) is calculated according to the Reed & Muench method.

AChE = AChE (Homo sapiens, UniProt P22303); assay: biochemical; format: biochemical; settings: for inhibition at 50 µM: concentration 50 μM, read-out: AChE inhibition rate, primary screening; for IC50: positive control tacrine, read-out: IC50 of AChE-inhibiting activity; for acetylcholinesterase inhibitory activity (in words): abstract statement
Chain of AChE (P22303 32-614): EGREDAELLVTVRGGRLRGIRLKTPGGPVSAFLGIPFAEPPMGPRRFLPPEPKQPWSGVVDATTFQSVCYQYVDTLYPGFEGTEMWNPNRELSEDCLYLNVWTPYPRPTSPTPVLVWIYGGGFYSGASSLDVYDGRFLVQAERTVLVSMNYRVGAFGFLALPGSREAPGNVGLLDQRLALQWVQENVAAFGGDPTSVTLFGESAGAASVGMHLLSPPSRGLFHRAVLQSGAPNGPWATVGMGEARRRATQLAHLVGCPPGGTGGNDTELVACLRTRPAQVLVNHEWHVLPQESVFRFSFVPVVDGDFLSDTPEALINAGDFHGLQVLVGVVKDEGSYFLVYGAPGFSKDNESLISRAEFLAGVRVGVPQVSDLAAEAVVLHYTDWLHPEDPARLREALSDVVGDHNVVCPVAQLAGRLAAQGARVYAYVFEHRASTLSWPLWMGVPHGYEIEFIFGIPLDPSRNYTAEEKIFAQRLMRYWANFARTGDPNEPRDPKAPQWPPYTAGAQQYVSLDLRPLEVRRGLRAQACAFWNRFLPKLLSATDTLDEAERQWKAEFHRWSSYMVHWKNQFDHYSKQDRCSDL
Procedure: The reaction is carried out in a 96-well plate with plates plated by 200 μL/system with 3 replicates per sample; Detect the absorbance value of 405 nm every 30 s within 1 h after the addition of the color developer and substrate.

[1] = Staphylococcus aureus, MRSA, Reed & Muench method, 37 °C
[2] = Staphylococcus aureus, MRSA, concentration 100 μM, preliminary screen

| Compound | MIC50 (MRSA; [1]) | inhibition at 100 µM (MRSA; [2]) | inhibition at 50 µM (AChE) | IC50 (AChE) | MIC50 (50% minimum inhibitory concentration), anti-MRSA (MRSA; Reed & Muench method, 37 °C) | MIC50 (MRSA; Reed & Muench method, 37 °C) | anti-MRSA activity (in words) (MRSA) | acetylcholinesterase inhibitory activity (in words) (AChE) | MIC50 (MRSA; Staphylococcus aureus, MRSA) | inhibition at 100 µM (MRSA; Staphylococcus aureus, MRSA) |
| --- | --- | --- | --- | --- | --- | --- | --- | --- | --- | --- |
| COc1c(Cc2ccc(O)cc2)c(O)c2c3c(ccc2c1Cc1ccc(O)cc1)C(O)CCC3=O (stereo not drawn) [Compound 1, 1,5-dihydroxy-6,8-bis(4-hydroxybenzyl)-7-methoxy-2,3-dihydrophenanthren-4(1H)-one] | 22.06 ± 0.026 µM (≈ 10.4 µg/mL) | > 80% | – | – | – | – | – | – | – | – |
| COc1cc(O)c2c3c(ccc2c1Cc1ccc(O)cc1)C(=O)C(Cc1ccc(O)cc1)(Cc1ccc(O)cc1)C3=O [Compound 2, 9-hydroxy-2,2,6-tris(4-hydroxybenzyl)-7-methoxy-1H-cyclopenta[a]naphthalene-1,3(2H)-dione] | – | 77.2 ± 1.61% | > 60% | 24.7 ± 0.732 µM | – | – | – | – | – | – |
| COc1cc2ccc3c(c2c(O)c1Cc1ccc(O)cc1)C(=O)C(Cc1ccc(O)cc1)(Cc1ccc(O)cc1)C3=O [Compound 3, 9-hydroxy-2,2,8-tris(4-hydroxybenzyl)-7-methoxy-1H-cyclopenta[a]naphthalene-1,3(2H)-dione] | – | 13.5 ± 2.48% | > 60% | 15.7 ± 1.57 µM | – | – | – | – | – | – |
| Cc1ccc2c(c1)-c1cc(C3CC(=O)c4c(O)cc(O)cc4O3)c(O)cc1OC2(C)C (stereo not drawn) [Compound 5, 5,7-dihydroxy-2-(3-hydroxy-6,6,9-trimethyl-6H-benzo[c]chromen-2-yl) chroman-4-one] | 4.4 µM (≈ 1.84 µg/mL) | > 80% | – | – | 4.46 ± 0.02 µM (≈ 1.87 µg/mL) | 4.46 µM (≈ 1.87 µg/mL) | good activity | – | – | – |
| CC1(C)C=Cc2c(cc(O)c3c(=O)c(CC(O)C(C)(C)O)c(-c4ccc(O)cc4O)oc23)O1 (stereo not drawn) [Compound 6, 3-(2,3-dihydroxy-3-methylbutyl)-2-(2,4-dihydroxyphenyl)-5-hydroxy-8,8-dimethyl-4H,8H-pyrano[2,3-f] chromen-4-one] | 61.6 ± 1.56 µM (≈ 28 µg/mL) | > 80% | – | – | – | – | – | – | – | – |
| CC1=CC2c3c(cc(-c4cc5ccc(O)cc5o4)c(Cc4ccc(O)cc4)c3O)OC3(c4ccc(O)cc4O)Oc4cc(O)ccc4C(C1)C23 (stereo not drawn) [Compound 9, 8a-(2,4-dihydroxyphenyl)-6-(6-hydroxybenzofuran-2-yl)-5-(4-hydroxybenzyl)-2-methyl-1,3a1,8a,13b-tetrahydro-3aH-benzo [3, 4] isochromeno[1,8-bc] chromene-4,11-diol] | – | 63.95 ± 0.124% | > 60% | 0.488 ± 0.032 µM | – | – | – | good acetylcholinesterase inhibitory activity | – | – |
| CC(C)=CCc1c(O)cc(O)c2c(=O)c3c(oc12)-c1ccc(O)cc1OC3C=C(C)C (stereo not drawn) [Compound 11, cyclomulberrin] | 1.91 µM (≈ 0.802 µg/mL) | > 80% | – | – | 1.908 ± 0.014 µM (≈ 0.802 µg/mL) | – | good activity | – | – | – |
| CC(C)=CCc1c(-c2ccc(O)cc2O)oc2c(CC=C(C)C)c(O)cc(O)c2c1=O [Compound 12, kuwanon C] | 1.91 µM (≈ 0.807 µg/mL) | > 80% | – | – | 1.911 ± 0.018 µM (≈ 0.807 µg/mL) | – | good activity | – | – | – |
| CC1=C[C@H]2c3c(O)cc(-c4cc5ccc(O)cc5o4)cc3O[C@@]3(c4ccc(O)cc4O)Oc4cc(O)ccc4[C@H](C1)[C@@H]23 [Compound 13, mulberrofuran G] | 1.26 µM (≈ 0.711 µg/mL) | > 80% | > 60% | 1.06 ± 0.011 µM | 1.264 ± 0.005 µM (≈ 0.711 µg/mL) | – | good activity | good acetylcholinesterase inhibitory activity | – | – |
| CN[C@H](CC(C)C)C(=O)N[C@H]1C(=O)N[C@@H](CC(N)=O)C(=O)N[C@H]2C(=O)N[C@H]3C(=O)N[C@H](C(=O)N[C@H](C(=O)O)c4cc(O)cc(O)c4-c4cc3ccc4O)[C@H](O)c3ccc(c(Cl)c3)Oc3cc2cc(c3O[C@@H]2O[C@H](CO)[C@@H](O)[C@H](O)[C@H]2O[C@H]2C[C@](C)(N)[C@H](O)[C@H](C)O2)Oc2ccc(cc2Cl)[C@H]1O [Vancomycin, reference compound] | – | – | – | – | – | – | – | – | 0.433 ± 0.002 µM (≈ 0.628 µg/mL) | 98.86 ± 0.495% |
